Experimental data taken from paper PMC3985777 (Biochemistry, 2014).

Legend:
HasAp [1] = target: HasAp (Pseudomonas aeruginosa, UniProt G3XD33, H83A); assay: biochemical
HasAp [2] = target: HasAp (Pseudomonas aeruginosa, UniProt G3XD33, Y75A); assay: biochemical

C=CC1=C(C)C2=Cc3c(C=C)c(C)c4[n]3[Fe]([Cl])[n]3c(c(C)c(CCC(=O)O)c3=CC3=NC(=C4)C(C)=C3CCC(=O)O)=CC1=N2 [hemin]
Kd (HasAp [1]): 30 µM
Kd (HasAp [2]): 129 µM
